Literature values in US20210251923A1, “METHODS FOR IMPROVING NEUROLOGICAL DISEASES AND DISORDERS” (CuraSen Therapeutics, Inc., priority 2018, published 2021).

System: Ts65Dn mice
Settings: increasing brain NE levels

N[C@H](C(=O)O)[C@H](O)c1ccc(O)c(O)c1 [L-DOPS, L-threo-3,4-dihydroxyphenylserine]
contextual learning: restored contextual learning
